Data: ChEMBL document CHEMBL1147306, “Studies on inhibitors of skin tumor promotion, VI. Inhibitory effects of quinones on Epstein-Barr virus activation” (J Nat Prod, 1989)

Tests used:
Format in all cases: cell-based
[1] = test system: Raji; assay: Inhibition of TPA-induced EBV-early antigen activation in human Raji cells at 100 molar ratio after 48 hrs by indirect immunofluorescence technique relative to TPA; conditions: human gammaherpesvirus 4
[2] = Cytotoxicity against human Raji cells assessed as cell viability at 100 molar ratio; conditions: read-out: Activity
[3] = Cytotoxicity against human Raji cells assessed as cell viability at 500 molar ratio; conditions: read-out: Activity
[4] = test system: Raji; assay: Inhibition of TPA-induced EBV-early antigen activation in human Raji cells at 10 molar ratio after 48 hrs by indirect immunofluorescence technique relative to TPA; conditions: human gammaherpesvirus 4
[5] = test system: Raji; assay: Inhibition of TPA-induced EBV-early antigen activation in human Raji cells at 500 molar ratio after 48 hrs by indirect immunofluorescence technique relative to TPA; conditions: human gammaherpesvirus 4
[6] = Cytotoxicity against human Raji cells assessed as cell viability at 10 molar ratio; conditions: read-out: Activity
[7] = Cytotoxicity against human Raji cells assessed as cell viability at 1000 molar ratio; conditions: read-out: Activity

Structure (SMILES)	EBV-EA activation % of TPA control [1] [%]	viability at 100 molar ratio [2] [%]	viability at 500 molar ratio [3] [%]	EBV-EA activation % of TPA control [4] [%]	EBV-EA activation % of TPA control [5] [%]	viability at 10 molar ratio [6] [%]	viability at 1000 molar ratio [7] [%]
O=C1C=CC(=O)c2c(O)ccc(O)c21 [NAPHTHAZALIN]	0	50	40	68.9	0	> 80	20
Cc1cnc2c(c1)C(=O)c1cccc(O)c1C2=O	72.4	60	> 80	100	15.8	> 80	30
COc1c(CO)c(O)cc2c1C(=O)c1ccccc1C2=O [DAMNACANTHOL]	100	> 80	> 80	100	91.2	> 80	70
Cc1cc(O)c2c(c1)C(=O)c1cc(O)cc(O)c1C2=O [EMODIN]	91.1	> 80	> 80	100	54.2	> 80	> 80
O=C1c2ccc(O)c(O)c2C(=O)c2c(O)ccc(O)c21 [QUINALIZARIN]	88.4	> 80	60	100	0	> 80	40
Cc1ccc2c(n1)C(=O)c1c(O)cccc1C2=O	56.8	> 80	50	92.4	17.3	> 80	10
CN(C)C1=CC(=O)c2c(O)ccc(O)c2C1=O	87.2	> 80	> 80	100	28.2	> 80	50
COc1cccc2c1C(=O)c1c(ccc3c1OCO3)C2=O	82.5	> 80	> 80	100	57.6	> 80	60
O=C1c2ccccc2C(=O)c2sccc21 [THIOPHENONAPHTHOQUINONE]	52.8	70	0	81.4	0	> 80	0
CC1=CC(=O)c2ccccc2C1=O [MENADIONE]	65.7	70	0	89.4	0	> 80	0
Cc1ccnc2c1C(=O)c1cc(O)ccc1C2=O	74.4	> 80	60	100	73.9	> 80	60
COc1cccc2c1C(=O)c1ncc(C)cc1C2=O	100	> 80	> 80	100	83	> 80	> 80
Cc1ccnc2c1C(=O)c1ccccc1C2=O [CLEISTOPHOLINE]	77.5	> 80	> 80	100	48.7	> 80	70
Cc1cnc2c(c1)C(=O)c1c(O)ccc(O)c1C2=O	82.6	> 80	50	100	16.8	> 80	40
O=C1C=CC(=O)c2cc(O)ccc21	67.2	60	60	92.3	0	> 80	10
O=C1c2ccccc2C(=O)c2c1ccc(O)c2O [ATHRAQUINONES A]	100	> 80	> 80	100	92.4	> 80	60
